From patent US5089471A, “Peptidyl beta-aminoacyl aminodiol carbamates as anti-hypertensive agents” (G. D. Searle & Co., priority 1987, dated 1992)
Blank lines part the entries; values can stand above or below the compound they belong to. Square brackets hold non-standard residues; d marks the D form. Peptide text beside a SMILES is read from it. * marks the point of attachment. Sta = CC(C)C[C@H](N)[C@@H](O)CC(=O)O; Isovaleryl = CC(C)CC(=O)*

Tests used:
human renin = biological target: T1, human renin (Homo sapiens, UniProt P00797); assay: in vitro human renin inhibition test (angiotensin I determined by radioimmunoassay); assay type: biochemical; conditions: for relative activity of epimers as human renin inhibitor (in words): epimer of Example 9 versus epimer of Example 10
T1 construct: purchased National Institute for Biological Standards, London
T1 sequence (P00797 67-406): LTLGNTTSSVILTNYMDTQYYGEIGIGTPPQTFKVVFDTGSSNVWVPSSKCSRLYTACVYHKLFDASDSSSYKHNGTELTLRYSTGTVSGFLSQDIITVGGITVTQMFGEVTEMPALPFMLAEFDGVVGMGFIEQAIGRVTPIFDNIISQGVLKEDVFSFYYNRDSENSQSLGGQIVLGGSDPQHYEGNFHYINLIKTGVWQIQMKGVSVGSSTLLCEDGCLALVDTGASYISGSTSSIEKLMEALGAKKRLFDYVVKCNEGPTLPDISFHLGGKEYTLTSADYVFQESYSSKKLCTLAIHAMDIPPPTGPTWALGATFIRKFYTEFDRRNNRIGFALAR
Procedure: Compounds of Formula I were evaluated as inhibitors of human renin in an in vitro assay, as follows: This human renin inhibition test has been previously described in detail [Papaioannou, et al., Clinical and Experimental Hypertension, A7(9), 1243-1257 (1985)]. Human renin was obtained from the National Institute for Biological Standards, London. In a total volume of 0.25 mL 100 mM Tris-acetate buffer at pH 7.4, 25×10^-6 Goldblatt units of renin, 0.05 mL of plasma from human volunteers taking oral contraceptives, 6.0 mM sodium EDTA, 2.4 mM phenylmethyl sulfonyl fluoride, 1.5 mM 8-hydroxyquinoline, 0.4 mg/mL BSA, and 0.024 mg/mL neomycin sulfate were incubated for two hours at 37° C. in the presence or absence of renin inhibitors. The produced angiotensin I was determined by radioimmunoassay (New England Nuclear kit). Compounds of Formula I to be assayed were solubilized in either ethyl alcohol or DMSO and diluted with 100 mM Tris-acetate buffer at pH 7.4 to the appropriate concentration. The final concentration of organic solvent in the reaction mixture was less than 1%. Control incubations at 37° C. were used to correct for effects of organic solvent on renin activity.

acid proteases = conditions: cited from earlier work
renin = conditions: Umezawa et al, J. Antibiot. 23:259-262 (1970); cited from earlier work
hog renin = conditions: after the injection of hog renin into nephrectomized rats; Gross et al, Science, 175, 656 (1971); cited from earlier work
pepsin = conditions: Umezawa et al, J. Antibiot. 23:259-262 (1970); cited from earlier work
cathepsin D = conditions: Umezawa et al, J. Antibiot. 23:259-262 (1970); cited from earlier work
[1] = in vitro, pH 7.4, 37° C., two hours, human plasma

- inhibiting renin (in words) (human renin; in vitro): capable of inhibiting renin in vitro
- IC50 (human renin; [1]): 280 nM
Compound: CC(C)C[C@H](O)[C@H](O)[C@H](CC1CCCCC1)NC(=O)C(C)CNC(=O)[C@H](Cc1ccccc1)OC(=O)N1CCOCC1 (stereo partly drawn) [Example 8, O-(N-morpholinocarbonyl)-3-L-phenyllactyl-D,L-α-methyl-β-alaninamide of (2S, 3R, 4S)-2-amino-1-cyclohexyl-3,4-dihydroxy-6-methylheptane]

- IC50 (human renin; [1]): 210 nM
Compound: CC(C)C[C@H](O)[C@H](O)[C@H](CC1CCCCC1)NC(=O)[C@H](C)CNC(=O)[C@H](Cc1ccccc1)OC(=O)N1CCOCC1 [Example 9, O-(N-morpholinocarbonyl)-3-L-phenyllactyl-α-(R)-methyl-β-alaninamide of (2 S, 3R, 4S)-2-amino-1-cyclohexyl-3,4-dihydroxy-6-methylheptane]
- relative activity of epimers as human renin inhibitor (in words) (human renin): much more active as a human renin inhibitor than the other epimer of Example 10

- inhibition at 1 µM (human renin; @ 10^-6 M, in vitro, pH 7.4, 37° C., two hours, human plasma): 8%
- relative activity of epimers as human renin inhibitor (in words) (human renin): less active epimer
Compound: CC(C)C[C@H](O)[C@H](O)[C@H](CC1CCCCC1)NC(=O)[C@@H](C)CNC(=O)[C@H](Cc1ccccc1)OC(=O)N1CCOCC1 [Example 10, O-(N-morpholinocarbonyl)-3-L-phenyllactyl-α-(S)-methyl-β-alaninamide of (2S, 3R, 4S)-2-amino-1-cyclohexyl-3,4-dihydroxy-6-methylheptane]

Compound: CC(C)CC(=O)N[C@H](C(=O)N[C@H](C(=O)N[C@@H](CC(C)C)[C@@H](O)CC(=O)N[C@@H](C)C(=O)N[C@@H](CC(C)C)[C@@H](O)CC(=O)O)C(C)C)C(C)C [pepstatin] (Isovaleryl-VV[Sta]A[Sta]-OH)
- inhibition of acid proteases in addition to renin (in words) (acid proteases): inhibiting acid proteases in addition to renin
- inhibition of renin (in words) (renin): inhibitor of aspartyl proteases such as pepsin, cathepsin D and renin
- reduction of blood pressure (hog renin): reduce blood pressure in vivo
- inhibition of pepsin (in words) (pepsin): inhibitor of aspartyl proteases such as pepsin
- inhibition of cathepsin D (in words) (cathepsin D): inhibitor of aspartyl proteases such as pepsin, cathepsin D
